{"source": "patent US20030207813A1", "about": "“Retroviral protease inhibitor combinations” (priority 1995, published 2003)", "key": {"NL4(P37-538)": {"tested_on": "NL4(P37-538)", "test": "Viral isolate resistance assay per Markowitz et al., NL4(P37-538)", "type": "cell-based, HIV-1", "conditions": "Human immunodeficiency virus 1; Table 9; selected against Example 10, 37 passages; read-out: Virus Isolate (EC50 nM) NL4(P37-538)", "excerpt": "(§1) RF represents the HIV-1 strain HIV-LRF and RFR represents a mixture of resistant strains obtained by selection of RF against the compound of Example 1. RFR comprises a mixture of viral strains having protease genotypes of G48V (14/40 clones); G48V, V82A (18/40 clones); G48V, L90S (2/40 clones); G48V, 154T, V82A (1/40 clones); G48M (1/40 clones); G48V, Q61H (1/40 clones); V13I, G48V (1/40 clones); G48V, F53L, V82A (1/40 clones); and G48V, V82A, C95Y (1/40 clones). RFR2 represents a mixture of resistant strains obtained by cloning RFR by three rounds of growth at limiting dilution. RFR2 comprises a mixture of viral strains having protease genotypes of G48V, V82A (13/15 clones); G17E, G48V, V82A (1/15 clones); and G48V, V82A, N37D, N88D (1/15 clones). RFRR represents a mixture of resistant strains obtained by selection of RF against the compounds of Examples 1 and 2 and then cloning by three rounds of growth at limiting dilution. RFRR comprises a mixture of viral strains having protease genotypes of G48V, 154T, L63P, V82A (7/9 clones); G48V, 154T, L63P, V82A, N88S (1/9 clones); and G48V, 154T, L63P, G73M, V82A (1/9 clones). SF162 represents the HIV-1 strain SF-162 and SF162R represents a mixture of resistant strains obtained by selection of SF162 against the compound of Example 1. SF162R comprises a mixture of viral strains having protease genotypes of M461, F53L, L63P, A71V, N88D (2/3 clones); and M46I, F53L, L63P, A71V, N88D, Q92R (1/3 clones). 89-959 represents the HIV-1 strain 89-959 and 89-959R represents a mixture of resistant strains obtained by selection of 89-959 against the compound of Example 2. 89-959R comprises a mixture of viral strains having protease genotypes of N88S (4/5 clones); and D25N, T26A, D30N, D37N, R41K, G73D, R87K, N88S (1/4 clones). NL4 represents the HIV-1 strain HIV-1NL4-3. NL4(G48V) represents a strain having a synthetically generated site-directed mutation in the protease from glycine to valine at amino acid position number 48. NL4(I84V) represents a strain having a synthetically generated site-directed mutation in the protease from isoleucine to valine at amino acid position number 84. NL4(R8Q,M46I) represents a strain having synthetically generated site-directed mutations in the protease from arginine to glutamine at amino acid position number 8 and methionine to isoleucine at amino acid position number 46. NL4(P22-538) represents a mixture of resistant strains obtained by selection of HIV-1NL4-3 against the compound of Example 10 after 22 passages comprising protease genotypes M46I, L63P, A71V, V82F, I84V (4/10); M46I, L63P, V82F, I84V (3/10); and M46I, A71V, V82F, I84V (3/10). NL4(P37-538) represents resistant strains obtained by selection of HIV-1NL4-3 against the compound of Example 10 after 37 passages comprising protease genotype M46I, L63P, A71V, 184A. NL4(538/524) represents resistant strains obtained by selection of NL4(P22-538) against the compound of Example 5 after 24 passages comprising protease genotype M46I, L63P, A71V, 184A. NL4(538/P7-AG) represents a mixture of resistant strains obtained by selection of NL4(P22-538) against the compound of Example 12 after 7 passages comprising protease genotypes M46I, L63P, A71V, 184A; and V321, V82I. NL4(538/P24-AG) represents resistant strains obtained by selection of NL4(P22-538) against the compound of Example 12 after 24 passages comprising protease genotype M46I, L63P, A71V, 184A. NLA(P19-003) represents resistant strains obtained by selection of HIV-1^NL4-3 against the compound of Example 9 after 19 passages comprising protease genotype R8K, M46I. NL4(P34-003) represents resistant strains obtained by selection of HIV-1^NL4-3 against the compound of Example 9 after 34 passages comprising protease genotype R8K, M46I, L63P, A71V, L90M.\nThe viral isolate resistance results summarized in Tables 7-11 were generated according to the assay procedures described by Markowitz et al., Journal of Virology, vol. […]"}, "HIV-1NL4-3": {"tested_on": "HIV-1NL4-3", "test": "microbe, parasite or virus in culture", "type": "cell-based", "conditions": "Human immunodeficiency virus 1, NL4", "excerpt": "(§2) RF represents the HIV-1 strain HIV-LRF and RFR represents a mixture of resistant strains obtained by selection of RF against the compound of Example 1. […] RFR2 represents a mixture of resistant strains obtained by cloning RFR by three rounds of growth at limiting dilution. […] RFRR represents a mixture of resistant strains obtained by selection of RF against the compounds of Examples 1 and 2 and then cloning by three rounds of growth at limiting dilution. […] SF162 represents the HIV-1 strain SF-162 and SF162R represents a mixture of resistant strains obtained by selection of SF162 against the compound of Example 1. […] 89-959 represents the HIV-1 strain 89-959 and 89-959R represents a mixture of resistant strains obtained by selection of 89-959 against the compound of Example 2. […] NL4 represents the HIV-1 strain HIV-1NL4-3. NL4(G48V) represents a strain having a synthetically generated site-directed mutation in the protease from glycine to valine at amino acid position number 48. NL4(I84V) represents a strain having a synthetically generated site-directed mutation in the protease from isoleucine to valine at amino acid position number 84. NL4(R8Q,M46I) represents a strain having synthetically generated site-directed mutations in the protease from arginine to glutamine at amino acid position number 8 and methionine to isoleucine at amino acid position number 46."}, "NL4(538/P7-AG)": {"tested_on": "NL4(538/P7-AG)", "test": "Viral isolate resistance assay per Markowitz et al., NL4(538/P7-AG)", "type": "cell-based, HIV-1", "conditions": "Human immunodeficiency virus 1; Table 10; NL4(P22-538) selected against Example 12, 7 passages", "excerpt": "as §1, with “NLA(P19-003) represents resistant strains obtained by selection of HIV-1^NL4-3 against the compound of Example 9 after 19 passages comprising protease genotype R8K, M46I. NL4(P34-003) represents resistant strains obtained by selection of HIV-1^NL4-3 against the compound of Example 9 after 34 passages comprising protease genotype R8K, M46I, L63P, A71V, L90M.” left out"}, "NL4(538/P24-AG)": {"tested_on": "NL4(538/P24-AG)", "test": "Viral isolate resistance assay per Markowitz et al., NL4(538/P24-AG)", "type": "cell-based, HIV-1", "conditions": "Human immunodeficiency virus 1; Table 10; NL4(P22-538) selected against Example 12, 24 passages", "excerpt": "as §1, with “NLA(P19-003) represents resistant strains obtained by selection of HIV-1^NL4-3 against the compound of Example 9 after 19 passages comprising protease genotype R8K, M46I. NL4(P34-003) represents resistant strains obtained by selection of HIV-1^NL4-3 against the compound of Example 9 after 34 passages comprising protease genotype R8K, M46I, L63P, A71V, L90M.” left out"}, "NL4(G48V)": {"tested_on": "NL4(G48V)", "test": "Viral isolate resistance assay per Markowitz et al., NL4(G48V)", "type": "cell-based, HIV-1", "conditions": "Human immunodeficiency virus 1, Table 7", "excerpt": "as §2"}, "NL4(538/524)": {"tested_on": "NL4(538/524)", "test": "Viral isolate resistance assay per Markowitz et al., NL4(538/524)", "type": "cell-based, HIV-1", "conditions": "Human immunodeficiency virus 1; Table 10; NL4(P22-538) selected against Example 5, 24 passages", "excerpt": "as §1, with “NLA(P19-003) represents resistant strains obtained by selection of HIV-1^NL4-3 against the compound of Example 9 after 19 passages comprising protease genotype R8K, M46I. NL4(P34-003) represents resistant strains obtained by selection of HIV-1^NL4-3 against the compound of Example 9 after 34 passages comprising protease genotype R8K, M46I, L63P, A71V, L90M.” left out"}, "NL4(R8Q,M46I)": {"tested_on": "NL4(R8Q,M46I)", "test": "Viral isolate resistance assay per Markowitz et al., NL4(R8Q,M46I)", "type": "cell-based, HIV-1", "conditions": "Human immunodeficiency virus 1, read-out: Virus Isolate (EC50 nM) NL4(R8O, M46I)", "excerpt": "(§3) RF represents the HIV-1 strain HIV-LRF and RFR represents a mixture of resistant strains obtained by selection of RF against the compound of Example 1. RFR comprises a mixture of viral strains having protease genotypes of G48V (14/40 clones); G48V, V82A (18/40 clones); G48V, L90S (2/40 clones); G48V, 154T, V82A (1/40 clones); G48M (1/40 clones); G48V, Q61H (1/40 clones); V13I, G48V (1/40 clones); G48V, F53L, V82A (1/40 clones); and G48V, V82A, C95Y (1/40 clones). RFR2 represents a mixture of resistant strains obtained by cloning RFR by three rounds of growth at limiting dilution. RFR2 comprises a mixture of viral strains having protease genotypes of G48V, V82A (13/15 clones); G17E, G48V, V82A (1/15 clones); and G48V, V82A, N37D, N88D (1/15 clones). RFRR represents a mixture of resistant strains obtained by selection of RF against the compounds of Examples 1 and 2 and then cloning by three rounds of growth at limiting dilution. RFRR comprises a mixture of viral strains having protease genotypes of G48V, 154T, L63P, V82A (7/9 clones); G48V, 154T, L63P, V82A, N88S (1/9 clones); and G48V, 154T, L63P, G73M, V82A (1/9 clones). SF162 represents the HIV-1 strain SF-162 and SF162R represents a mixture of resistant strains obtained by selection of SF162 against the compound of Example 1. SF162R comprises a mixture of viral strains having protease genotypes of M461, F53L, L63P, A71V, N88D (2/3 clones); and M46I, F53L, L63P, A71V, N88D, Q92R (1/3 clones). 89-959 represents the HIV-1 strain 89-959 and 89-959R represents a mixture of resistant strains obtained by selection of 89-959 against the compound of Example 2. 89-959R comprises a mixture of viral strains having protease genotypes of N88S (4/5 clones); and D25N, T26A, D30N, D37N, R41K, G73D, R87K, N88S (1/4 clones). NL4 represents the HIV-1 strain HIV-1NL4-3. NL4(G48V) represents a strain having a synthetically generated site-directed mutation in the protease from glycine to valine at amino acid position number 48. […]"}, "NL4(P22-538)": {"tested_on": "NL4(P22-538)", "test": "Viral isolate resistance assay per Markowitz et al., NL4(P22-538)", "type": "cell-based, HIV-1", "conditions": "Human immunodeficiency virus 1; Table 9; selected against Example 10, 22 passages; read-out: Virus Isolate (EC50 nM) NL4(P22-538)", "excerpt": "as §1, with “NLA(P19-003) represents resistant strains obtained by selection of HIV-1^NL4-3 against the compound of Example 9 after 19 passages comprising protease genotype R8K, M46I. NL4(P34-003) represents resistant strains obtained by selection of HIV-1^NL4-3 against the compound of Example 9 after 34 passages comprising protease genotype R8K, M46I, L63P, A71V, L90M.” left out"}, "NLA(P19-003)": {"tested_on": "NLA(P19-003)", "test": "Viral isolate resistance assay per Markowitz et al., NLA(P19-003)", "type": "cell-based, HIV-1", "conditions": "Human immunodeficiency virus 1, read-out: Virus Isolate (EC50 nM) NLA(P19-003)", "excerpt": "as §3"}, "NL4(P34-003)": {"tested_on": "NL4(P34-003)", "test": "Viral isolate resistance assay per Markowitz et al., NL4(P34-003)", "type": "cell-based, HIV-1", "conditions": "Human immunodeficiency virus 1; Table 11; selected against Example 9, 34 passages", "excerpt": "as §3"}, "NL4(I84V)": {"tested_on": "NL4(I84V)", "test": "Viral isolate resistance assay per Markowitz et al., NL4(I84V)", "type": "cell-based, HIV-1", "conditions": "Human immunodeficiency virus 1, Table 7", "excerpt": "as §2"}}}
{"smiles": "CC(C)c1nc(CN(C)C(=O)N[C@H](C(=O)N[C@@H](Cc2ccccc2)C[C@H](O)[C@H](Cc2ccccc2)NC(=O)OCc2cncs2)C(C)C)cs1", "note": "[Example 10]", "values": [{"measurement": "EC50", "setting": "NL4(P37-538)", "result": 6400, "unit": "nM"}, {"measurement": "EC90", "setting": "HIV-1NL4-3; Table 7, EC90, read-out: Virus Isolate (EC90 nM) NL4", "result": 80, "unit": "nM"}, {"measurement": "EC50", "setting": "HIV-1NL4-3; Table 8, read-out: Virus Isolate (EC50 nM) NL4", "result": 80, "unit": "nM"}, {"measurement": "EC50", "setting": "NL4(538/P7-AG)", "result": 6400, "unit": "nM"}, {"measurement": "EC50", "setting": "NL4(538/P24-AG)", "result": 6400, "unit": "nM"}, {"measurement": "EC90", "setting": "NL4(G48V)", "result": 160, "unit": "nM"}, {"measurement": "EC50", "setting": "NL4(538/524)", "result": 6400, "unit": "nM"}, {"measurement": "EC50", "setting": "NL4(R8Q,M46I)", "result": 240, "unit": "nM"}, {"measurement": "EC50", "setting": "NL4(P22-538)", "result": 1600, "unit": "nM"}, {"measurement": "EC50", "setting": "NLA(P19-003)", "result": 400, "unit": "nM"}, {"measurement": "EC50", "setting": "NL4(P34-003)", "result": 400, "unit": "nM"}, {"measurement": "EC90", "setting": "NL4(I84V)", "result": 800, "unit": "nM"}]}
